Assay results published in ChEMBL document CHEMBL3885861, “Open TG-GATES”.

Species on record: Rattus norvegicus
Assay: Open TG-GATES - Regimen: Single
Format: toxicity, organism-based, Sprague-Dawley
Set-up: regimen Single, gender Male, age 6 weeks
Details: in vivo, po, 100 mg/kg, route gavage, dose level Low; for APTT / Bas / Eos / Fbg / Hb / Ht / Lym / MCH / MCHC / MCV / Mono / Neu / PT / Plat / RBC / Ret / WBC: tissue Blood; for KIDNEY_L / KIDNEY_R / KIDNEY_TOTAL: tissue Kidney; for LIVER: tissue Liver; for A/G / ALP / ALT / AST / BUN / CRE / Ca / Cl / DBIL / GLC / IP / K / LDH / Na / PL / RALB / TBIL / TC / TG / TP / gamma-GTP: tissue Plasma

## CN/C(=N/CCSCc1nc[nH]c1C)NC#N [CIMETIDINE]
3 h
  TERMINAL_BW: 214.5 g
  APTT: 18.3 s
  Bas: 0%
  Eos: 1%
  Fbg: 220.4 mg/dL
  Hb: 13.1 g/dL
  Ht: 38.2%
  Lym: 78.6%
  MCH: 21.9 pg
  MCHC: 34.2%
  MCV: 64.1 fL
  Mono: 2.8%
  Neu: 16.8%
  PT: 12.8 s
  Plat: 127.8 x10_4/uL
  RBC: 596.2 x10_4/ul
  Ret: 8.3%
  WBC: 109.3 x10_2/uL
  KIDNEY_L: 1 g
  KIDNEY_R: 1 g
  KIDNEY_TOTAL: 2 g
  LIVER: 10 g
  A/G: 1.7
  ALP: 1167.2 IU/L
  ALT: 39.4 IU/L
  AST: 70.2 IU/L
  BUN: 9.6 mg/dL
  CRE: 0.4 mg/dL
  Ca: 10.6 mg/dL
  Cl: 102.6 meq/L
  DBIL: 0.072 mg/dL
  GLC: 195 mg/dL
  IP: 9.5 mg/dL
  K: 4 meq/L
  LDH: 154.4 IU/L
  Na: 140.6 meq/L
  PL: 140.6 mg/dL
  RALB: 3.4 g/dL
  TBIL: 0.1 mg/dL
  TC: 75.2 mg/dL
  TG: 47.4 mg/dL
  TP: 5.5 g/dL
  gamma-GTP: 0.6 IU/L
6 h
  TERMINAL_BW: 209.9 g
  APTT: 18.8 s
  Bas: 0%
  Eos: 1%
  Fbg: 216.8 mg/dL
  Hb: 13.2 g/dL
  Ht: 38%
  Lym: 77.6%
  MCH: 22.2 pg
  MCHC: 34.8%
  MCV: 63.7 fL
  Mono: 2.8%
  Neu: 17.6%
  PT: 13.1 s
  Plat: 135.7 x10_4/uL
  RBC: 596.8 x10_4/ul
  Ret: 7.8%
  WBC: 98.4 x10_2/uL
  KIDNEY_L: 1 g
  KIDNEY_R: 1 g
  KIDNEY_TOTAL: 1.9 g
  LIVER: 9.7 g
  A/G: 1.6
  ALP: 885 IU/L
  ALT: 34.4 IU/L
  AST: 64 IU/L
  BUN: 9.6 mg/dL
  CRE: 0.4 mg/dL
  Ca: 10.6 mg/dL
  Cl: 102.4 meq/L
  DBIL: 0.07 mg/dL
  GLC: 194.6 mg/dL
  IP: 9.6 mg/dL
  K: 3.7 meq/L
  LDH: 180 IU/L
  Na: 141.4 meq/L
  PL: 138 mg/dL
  RALB: 3.4 g/dL
  TBIL: 0.1 mg/dL
  TC: 70.6 mg/dL
  TG: 61.4 mg/dL
  TP: 5.5 g/dL
  gamma-GTP: 1.8 IU/L
9 h
  TERMINAL_BW: 209.3 g
  APTT: 20.3 s
  Bas: 0%
  Eos: 1%
  Fbg: 246 mg/dL
  Hb: 12.9 g/dL
  Ht: 36.9%
  Lym: 74%
  MCH: 22.4 pg
  MCHC: 34.9%
  MCV: 64.3 fL
  Mono: 2.4%
  Neu: 21%
  PT: 13.7 s
  Plat: 128.2 x10_4/uL
  RBC: 575.2 x10_4/ul
  Ret: 8.7%
  WBC: 88 x10_2/uL
  KIDNEY_L: 1 g
  KIDNEY_R: 1 g
  KIDNEY_TOTAL: 1.9 g
  LIVER: 9.2 g
  A/G: 1.6
  ALP: 890.8 IU/L
  ALT: 31.4 IU/L
  AST: 62 IU/L
  BUN: 11.6 mg/dL
  CRE: 0.3 mg/dL
  Ca: 10.5 mg/dL
  Cl: 103.4 meq/L
  DBIL: 0.076 mg/dL
  GLC: 194.4 mg/dL
  IP: 10 mg/dL
  K: 3.9 meq/L
  LDH: 137.4 IU/L
  Na: 141.4 meq/L
  PL: 135 mg/dL
  RALB: 3.4 g/dL
  TBIL: 0.1 mg/dL
  TC: 74.4 mg/dL
  TG: 42.8 mg/dL
  TP: 5.5 g/dL
  gamma-GTP: 1.2 IU/L
24 h
  TERMINAL_BW: 225.6 g
  APTT: 19.4 s
  Bas: 0%
  Eos: 1%
  Fbg: 227.2 mg/dL
  Hb: 12.7 g/dL
  Ht: 37.8%
  Lym: 79.8%
  MCH: 21.5 pg
  MCHC: 33.7%
  MCV: 63.7 fL
  Mono: 3.2%
  Neu: 14.8%
  PT: 12.8 s
  Plat: 135 x10_4/uL
  RBC: 593.4 x10_4/ul
  Ret: 7.2%
  WBC: 109.1 x10_2/uL
  KIDNEY_L: 1 g
  KIDNEY_R: 1.1 g
  KIDNEY_TOTAL: 2.1 g
  LIVER: 11.2 g
  A/G: 1.7
  ALP: 1060 IU/L
  ALT: 35.2 IU/L
  AST: 64.4 IU/L
  BUN: 15.8 mg/dL
  CRE: 0.4 mg/dL
  Ca: 10.8 mg/dL
  Cl: 102.2 meq/L
  DBIL: 0.1 mg/dL
  GLC: 199.4 mg/dL
  IP: 6.9 mg/dL
  K: 4.2 meq/L
  LDH: 155.6 IU/L
  Na: 140 meq/L
  PL: 143.8 mg/dL
  RALB: 3.4 g/dL
  TBIL: 0.2 mg/dL
  TC: 73.2 mg/dL
  TG: 98.8 mg/dL
  TP: 5.5 g/dL
  gamma-GTP: 1.6 IU/L
